PubChem BioAssay (NCI)
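Tested at 5 concentrations; 48 h exposure; 96-well plates; endpoints linearly interpolated, else capped at highest concentration. GI50: concentration for 50% inhibition of growth. TGI: concentration producing complete growth inhibition.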

Legend:
Test in all cases: NCI anticancer screen, dose series, 48 h; in the data active means GI50 below about 0.43 µM; inactive means the rest
[1] = tested on: SN12C renal
[2] = tested on: HL-60(TB) leukemia
[3] = tested on: SK-MEL-28 melanoma
[4] = tested on: SF-295 CNS
[5] = tested on: SK-MEL-5 melanoma
[6] = tested on: IGROV1 ovarian
[7] = tested on: NCI/ADR-RES ovarian
[8] = tested on: HCT-15 colon
[9] = tested on: NCI-H460 lung
[10] = tested on: NCI-H226 lung
[11] = tested on: CCRF-CEM leukemia
[12] = tested on: MDA-MB-231 breast
[13] = tested on: SK-MEL-2 melanoma
[14] = tested on: U251 CNS
[15] = tested on: SK-OV-3 ovarian
[16] = tested on: T-47D breast
[17] = tested on: SNB-75 CNS

N#CC(O)CCOCc1ccccc1 (stereo not drawn)
> 100 µM: TGI [1] | TGI [2] | TGI [3] | TGI [4] | TGI [5] | TGI [6] | TGI [7] | TGI [8] | TGI [9] | TGI [10] | TGI [11] | TGI [12] | TGI [13] | TGI [14] | TGI [15] | TGI [16]

Oc1ccc(Br)cc1C=Nc1c(NC2CCCCC2)oc2ccc(Br)cc12
79.5 µM: TGI [17]
21.8 µM: TGI [2]
> 100 µM: TGI [1] | TGI [3] | TGI [4] | TGI [5] | TGI [6] | TGI [7] | TGI [8] | TGI [9] | TGI [10] | TGI [12] | TGI [14] | TGI [15] | TGI [16]
20.2 µM: TGI [11]

Cc1cc(Cl)ccc1NC(=O)/C(=N\NC(C)(C)C)C(C#N)c1nc(-c2ccc([N+](=O)[O-])cc2)cs1 (stereo not drawn)
> 100 µM: TGI [17] | TGI [1] | TGI [2] | TGI [3] | TGI [4] | TGI [5] | TGI [6] | TGI [8] | TGI [9] | TGI [10] | TGI [11] | TGI [13] | TGI [14] | TGI [15]

CN(C)CC1(C)CC/C(=C\c2ccc(Cl)cc2)C1=O (stereo not drawn)
> 100 µM: TGI [17] | TGI [1] | TGI [2] | TGI [3] | TGI [4] | TGI [5] | TGI [6] | TGI [8] | TGI [10] | TGI [13] | TGI [14]
68.4 µM: TGI [11]
54.6 µM: TGI [9]

CC(C)CC(=O)CC(C)[C@]1(CCCOCc2ccccc2)C(=O)N2CCC3(C[C@@]24CCC[C@H]41)OCCO3 (stereo partly drawn)
> 10 µM: TGI [1] | TGI [2] | TGI [4] | TGI [5] | TGI [6] | TGI [7] | TGI [8] | TGI [9] | TGI [10] | TGI [11] | TGI [12] | TGI [13] | TGI [14] | TGI [15]

COc1cc2c(c(OC)c1OC)-c1ccc(SC)c(=O)cc1[C@@H](NC(=O)c1cccc([N+](=O)[O-])c1)CC2
35.6 µM: TGI [6]
inactive: GI50 [3] 10.5 µM
21.6 µM: TGI [1]
active: GI50 [8] 0.027 µM
0.0467 µM: TGI [5]
0.0638 µM: TGI [15]
82.3 µM: TGI [3]
> 100 µM: TGI [8] | TGI [11]
0.0577 µM: TGI [14]

CC(=O)OCC12CC(CC1OC(C)=O)c1ccccc12 (stereo not drawn)
> 100 µM: TGI [1] | TGI [2] | TGI [3] | TGI [4] | TGI [5] | TGI [6] | TGI [8] | TGI [9] | TGI [10] | TGI [11] | TGI [14] | TGI [15]

COC(=O)C(Cc1nc2ccc(Cl)cc2[nH]c1=O)C(=O)C(=O)Nc1cc(C)ccc1C (stereo not drawn)
> 100 µM: TGI [17] | TGI [1] | TGI [2] | TGI [3] | TGI [4] | TGI [5] | TGI [6] | TGI [8] | TGI [9] | TGI [10] | TGI [11] | TGI [13] | TGI [14] | TGI [15]

COc1ccc(OC2(c3cc(OC)ccc3OC)OC(=O)c3ccccc32)cc1 (stereo not drawn)
> 100 µM: TGI [17] | TGI [1] | TGI [2] | TGI [3] | TGI [4] | TGI [5] | TGI [6] | TGI [8] | TGI [9] | TGI [10] | TGI [11] | TGI [13] | TGI [14] | TGI [15]

NC(=O)N/N=C(\CC1OC(=O)c2ccccc21)c1ccc([N+](=O)[O-])cc1 (stereo not drawn)
39.5 µM: TGI [14]
59.7 µM: TGI [8]
49.8 µM: TGI [6]
35.4 µM: TGI [13]
47.2 µM: TGI [5]
> 100 µM: TGI [1] | TGI [2] | TGI [4] | TGI [9] | TGI [11]
78.6 µM: TGI [17]

Cc1cc(N(CCC#N)CCC#N)ccc1/C=C1N=C(/C=C\c2ccccc2)N(NC(=O)CC(=O)Nc2ccccc2Cl)C\1=O
> 100 µM: TGI [17] | TGI [1] | TGI [2] | TGI [3] | TGI [4] | TGI [5] | TGI [6] | TGI [8] | TGI [9] | TGI [10] | TGI [11] | TGI [13] | TGI [14] | TGI [15]

CCOC(=O)C(C)NC(=O)NC12CC3CC(CC(F)(C3)C1)C2 (stereo not drawn)
> 100 µM: TGI [17] | TGI [2] | TGI [3] | TGI [5] | TGI [6] | TGI [9] | TGI [11] | TGI [13] | TGI [14] | TGI [15]
